Molecules are shown by their SMILES. “Also recorded” adds a separate entry of the source. Residues, ends and D or L forms follow the SMILES beside them. *: point of attachment. Myristoyl = CCCCCCCCCCCCCC(=O)*

Format in all cases: in vivo, BALB/c mice
The test system of assay [1] is P. aeruginosa GIM 1.551. Description: Subcutaneous abscess model. To be noted: injected 20 μL, 1 μg/μL, once a day for 3 days. The protocol: A subcutaneous abscess model in vivo was established as previously reported (Zhao et al., [2019]). The mouse dorsal region with 3.0 cm diameter was treated with hair pusher. A total of 120 mice were randomly divided into two experimental models, one was challenged with S. aureus ATCC 25923 (2.5 × 10^8 CFU/mL, 60 μL), and the other was challenged with P. aeruginosa GIM 1.551 (3.0 × 10^8 CFU/mL, 60 μL). In the S. aureus ATCC 25923 model, 60 mice were divided into six groups of 10 members. The mice with no infection and treatment was used as a blank control, those directly injected with PBS (20 μL) as the negative control group, those injected with benzylpenicillin potassium (20 μL, 1 μg/μL) as the positive control group, and the remaining three groups as the treatment groups injected with Myr-36PW (20 μL, 1 μg/μL), PMAP-36PW (20 μL, 1 μg/μL), and PMAP-36 (20 μL, 1 μg/μL). The procedure in P. aeruginosa GIM 1.551 model is the same as that in S. aureus ATCC 25923 model, except for the use of ampicillin sodium as a positive control. Treatment once a day for 3 days was initiated when the mice developed prominent pustules on their backs. A day after the treatment, the size of the abscess was observed, and its tissues were excised, homogenized, and serially diluted. Bacteria CFU counts were calculated.
Figure 10 Treatment efficacy of subcutaneous abscess by Myr-36PW in vivo. Mice were injected with S. aureus ATCC 25923 or P. aeruginosa GIM 1.551 to develop a subcutaneous abscess before treatment. (A) Changes in the abscess area of mice after 3 days treatment. (B,C) Quantitative analysis of bacterial CFU in abscess area that received 3 days treatment under various experimental conditions. The number of CFU in each treatment group was normalized by using the CFU of the experimental group divided by the CFU of the PBS group (100%). BP is benzylpenicillin potassium, AS is ampicillin sodium. Data represent the mean ± SD of five individual experiments. *P < 0.05 and **P < 0.01, compared with PBS. ^#P < 0.05 and ^##P < 0.01, compared with PMAP-36PW.

The subject of assay [2] is P. aeruginosa GIM 1.551. The experiment in a line: Pneumonia (lung infection) model. Conditions: intranasal 40 μL, 1 μg/μL, once a day for 3 days. Here is the method: A pneumonia model in vivo was established as previously reported, with minor modification (Cortés et al., [2002]; Aoki et al., [2009]; Shi et al., [2018]). A total of 120 mice were randomly divided into two experimental models, one was intranasal inoculation of S. aureus ATCC 25923 (8.3 × 10^9 CFU/mL, 50 μL), and the other was intranasal inoculation of P. aeruginosa GIM 1.551 (4.5 × 10^10 CFU/mL, 50 μL). In the S. aureus ATCC 25923 model, 60 mice were divided into the following six groups of 10 mice each: no infection and treatment was used as a blank control, those with intranasal administration of PBS (40 μL) as the negative control group, those administered with benzylpenicillin potassium (40 μL, 1 μg/μL) as the positive control group, and the remaining three corresponded to Myr-36PW (40 μL, 1 μg/μL), PMAP-36PW (40 μL, 1 μg/μL), and PMAP-36 groups (40 μL, 1 μg/μL). The procedure for P. aeruginosa GIM 1.551 model is the same as for S. aureus ATCC 25923 model, except for the use of ampicillin sodium as the positive control. After 4 h post-inoculation, treatment was initiated, once a day for 3 days. The mice were sacrificed 24 h after the treatment. Changes in the appearance of lung tissues were observed, and lung tissues were removed aseptically from the mice. Half of the removed lung tissues were gently fixed in buffered formaldehyde solution for histopathological assessment by hematoxylin and eosin (H&E) staining. Pathological changes were scored to provide individual therapeutic status as described previously (Lei et al., [2018]). The remaining lung tissues were added with 1 mL of PBS, homogenized, and serially diluted. Bacterial CFU counts were determined.
Figure 8 Therapeutic effect for pneumonia by Myr-36PW in vivo. Mice were injected with S. aureus ATCC 25923 or P. aeruginosa GIM 1.551 to form pneumonia, and lungs (n = 5) in each group were collected on day 4 after intranasal bacterial inoculation. (A) Morphological changes of lung tissues. (B) Representative histopathological images of processed lung section with hematoxylin and eosin (H&E) staining. Images are presented at a magnification of 20×. a: inflammatory cell infiltration. b: the alveolar wall is thickened. c: alveolar wall congestion or alveolar hemorrhage. (C,D) Pathological scores of the lung sections. Scoring standard: 1 indicated no pathology, 2 indicated local pulmonary congestion and inflammatory cell infiltration, 3 indicated pulmonary congestion and a large number of inflammatory cell infiltration, affecting <20% of the section, 4 indicated pulmonary congestion and a large number of inflammatory cell infiltration, affecting 20–50% of the section, and 5 indicated pulmonary congestion and a large number of inflammatory cell infiltration, affecting >50% of the section. (E,F) Bacterial CFU in lung homogenate. BP is benzylpenicillin potassium, AS is ampicillin sodium. Data represent the mean ± SD of five individual experiments.

The subject of assay [3] is P. aeruginosa GIM 1.551. The experiment in a line: Wound infection model. Conditions: 20 μL, 1 μg/μL, once a day for 7 days. Here is the method:
Sixty mice with ten mice in each group were used in the experiment. Infection and treatment were performed as previously described (Hong et al., [2017]). The mouse dorsal region with a diameter of 3.0 cm was treated with hair pusher, and a full-thickness 2.0 cm diameter wound was created by excising the skin and infected by direct seeding with P. aeruginosa GIM 1.551 (1 × 10^8 CFU/mL, 50 μL). The wound was then covered with sterile gauze to prevent cross contamination. Treatment was initiated at 24 h after bacterial inoculation. The mice with no infection and treatment was used as a blank control, those provided with PBS (20 μL) as the negative control group, those administered with ampicillin sodium (20 μL, 1 μg/μL) as the positive control group, and the remaining were those treated with the three peptides (20 μL, 1 μg/μL) once a day for 7 days as the treatment groups. The mice were sacrificed after the 7 day treatment. Changes in the wound were observed, and the infected sections of skin were aseptically contained, homogenized, and serially diluted. Bacterial CFU counts were obtained.
Figure 11 Treatment value of wound by Myr-36PW in vivo. A 2 cm wound was cut with a knife and directly injected with P. aeruginosa GIM 1.551. (A) Wound changes of mice after 7 days treatment. (B) Bacterial CFU in the wound area treated for 7 days under different experimental conditions. AS is ampicillin sodium. Data represent the mean Log (CFU) ± SD of five individual experiments. *P < 0.05 and **P < 0.01, compared with PBS. ^#P < 0.05, compared with PMAP-36PW.

Regarding `CCCCCCCCCCCCCC(=O)NCC(=O)NCC(=O)N[C@@H](CCCNC(=N)N)C(=O)N[C@@H](Cc1ccccc1)C(=O)N[C@@H](CCCNC(=N)N)C(=O)N[C@@H](CCCNC(=N)N)C(=O)N[C@@H](CC(C)C)C(=O)N[C@@H](CCCNC(=N)N)C(=O)N[C@@H](CCCCN)C(=O)N[C@@H](CCCCN)C(=O)N[C@H](C(=O)N[C@@H](CCCNC(=N)N)C(=O)N[C@@H](CCCCN)C(=O)N[C@@H](CCCNC(=N)N)C(=O)N[C@@H](CC(C)C)C(=O)N[C@@H](CCCCN)C(=O)N[C@@H](CCCCN)C(=O)N[C@H](C(=O)NCC(=O)N[C@@H](CCCCN)C(=O)N[C@H](C(=O)N[C@@H](CC(C)C)C(=O)N[C@@H](CCCCN)C(=O)N[C@@H](Cc1c[nH]c2ccccc12)C(=O)N[C@H](C(=O)N[C@@H](Cc1c[nH]c2ccccc12)C(=O)N[C@@H](Cc1c[nH]c2ccccc12)C(=O)N[C@H](C(=O)N[C@H](C(=O)NCC(=O)N[C@@H](CO)C(=O)N[C@H](C(=O)N1CCC[C@H]1C(=O)N[C@@H](CC(C)C)C(=O)NCC(=O)N[C@@H](CS)C(=O)NCC(=O)O)[C@@H](C)CC)C(C)C)[C@@H](C)CC)[C@@H](C)CC)C(C)C)[C@@H](C)CC)[C@@H](C)O` [Myr-36PW] (Myristoyl-GGRFRRLRKKTRKRLKKIGKVLKWIWWIVGSIPLGCG-OH; C-terminus assumed), the Abscess area result with P. aeruginosa GIM 1.551 [1] was “significantly reduced the abscess area and effectively suppressed its growth”. In addition, the “Bacterial CFU in abscess area” value in the assay with P. aeruginosa GIM 1.551 [1] (vs PMAP-36PW: Myr-36PW P < 0.05, ampicillin sodium P < 0.01, n = 5) is “significant difference compared with that of PBS group (P < 0.01); also recorded: lower than that of PMAP-36PW group”. Moreover, the “Lung histopathology (H&E)” value in the assay with P. aeruginosa GIM 1.551 [2] is “a complete alveolar structure, reduced blood stasis, and large reduction in inflammatory cells”. In the assay on P. aeruginosa GIM 1.551 [2] (n = 5), the “Bacterial CFU in lung homogenate” value is listed as “decreased the P. aeruginosa GIM 1.551 CFU level compared with the PMAP-36PW group (P < 0.05)” and the “Pathological scores of the lung sections” value is “lower scores than PMAP-36PW group (P < 0.05)”. In the assay with P. aeruginosa GIM 1.551 [3], the Wound size entry is reported as “significantly reduced”. In the assay with P. aeruginosa GIM 1.551 [3] (vs PBS group: PMAP-36PW P < 0.05, Myr-36PW and ampicillin sodium P < 0.01, n = 5), the “Bacterial CFU in the wound area” value is “significantly reduced”.
